Reference: PMC12040169 (PLOS Biology, 2025)

Experiment: in vitro
Conditions: human, hela cells, % viability

| SMILES | viability at 28.5 h, 10 µM |
| --- | --- |
| Cc1nn(C)cc1CN(Cc1ccccc1F)CC1CCCO1 (stereo not drawn) [CBK283014] | 106% |
| CCc1nc2ccc(C(=O)N3CCC(O)(Cc4ccccc4)CC3)cn2c1N(CC)C(=O)CCC1CCCC1 [CBK146854] | 88.1% |
| CCN(CC)C(=O)CN1CCC(Oc2cncc(Oc3ccc(OC)c(OC)c3)n2)C1 (stereo not drawn) [CBK084404] | 93.9% |
| CC(C)c1ccc(NC(=O)CN2CCN(c3ccc(C(F)(F)F)cn3)CC2)cc1 [CBK086000] | 81.9% |
| NC(=O)CN1CCC[C@@H]2NC(=O)COc3ccccc3C(=O)N[C@@H]3CCOC[C@@H]3C/C=C/C[C@@H]21 [CBK292041] | 103% |
| c1csc(-c2nccnc2NCCCN2CCOCC2)c1 [CBK036632] | 84.6% |
| O=C(NCc1cccnc1)c1ccc2c(c1)C(=O)N(Cc1ccco1)C2=O [CBK269675] | 88.6% |
| CN1CCC(Cc2nc(-c3cccc(OC(F)F)c3)n(CCO)n2)CC1 [CBK307294] | 90.2% |
| Cc1ccc(C)c(NC(=O)c2cnc3sccn3c2=O)c1 [CBK287451] | 85.1% |
| O=C(CN1CCC(C(=O)c2ccc(F)cc2)CC1)Nc1ncccn1 [CBK149131] | 95.7% |
| CCC1CCCCN1C(=O)C1CCCCC1 (stereo not drawn) [CBK084528] | 90% |
| Cc1ccc(S(=O)(=O)N2CC[C@H](c3nnc(-c4ccccc4)o3)C2)cc1 [CBK289405] | 111% |
| Nc1ccn([C@H]2C[C@@H](O)[C@@H](CO)O2)c(=S)n1 [CBK201187] | 91.4% |
| O=C(c1ccco1)N1C2CCC1Cn1c(nc3ccccc3c1=O)C2 (stereo not drawn) [CBK284452] | 89.1% |
| OCCN1CCN(C2CCN(Cc3ccccc3Cl)CC2)CC1 [CBK264710] | 90.1% |
| Cc1cccc(N2C(=O)SC(N(CC(=O)O)c3cccc(C)c3)C2=O)c1 (stereo not drawn) [CBK287095] | 87.6% |
| O=C(O)CN1C(=O)/C(=C\c2ccc(Oc3ccc(C(F)(F)F)cc3[N+](=O)[O-])cc2)SC1=S [CBK264809] | 97.9% |
| COCCOc1nc2ccccc2nc1C [CBK058489] | 103% |
| O=C(Cn1cccn1)N1CCc2[nH]c3ccccc3c2C1 [CBK281839] | 92.6% |
| CN(CC(=O)O)S(=O)(=O)c1ccc2c(c1)OCCO2 [CBK263904] | 95.8% |
| O=C(NO)Nc1cc(Cl)cc(Cl)c1 [CBK016430] | 109% |

| SMILES | viability at 28.5 h, 10 µM |
| --- | --- |
| Cc1c[nH]c(CN(C)c2cc([C@H]3C[C@@H](N)C3)nc(N3CCCC3)n2)n1 [CBK306798] | 84.4% |
| O=C1CN(C(=O)NCC2CCCCC2)CCN1 [CBK155854] | 85.9% |
| CCN(Cc1ccncc1)C(=O)NCC1CCCCC1 [CBK155132] | 103% |
| CC(Oc1ccc2c(c1)OCO2)C(=O)NNC(=O)Nc1cccc(C(F)(F)F)c1 (stereo not drawn) [CBK266922] | 87.7% |
| CCOc1cc(NC2CCN(C(=O)CC3CCCCC3)CC2)ncn1 [CBK305506] | 104% |
| CCN(CC)C(=O)N1CCN(CCCC(=O)c2ccc(F)cc2)CC1 [CBK025042C] | 85.4% |
| Nc1nc(N)c([C@H]2C[C@@H](O)[C@@H](CO)O2)nc1Cl [CBK201326] | 103% |
| Cc1ccc2c(c1)C(C[C@H]1CN(C(=O)c3ccco3)CC[C@H]1CC(=O)O)=NCC2 [CBK289162] | 79.1% |
| O=C(Nc1cc(Oc2cncc(Cl)c2)cc([N+](=O)[O-])c1)c1nn2c(C(F)(F)F)cc(-c3cccs3)nc2c1Cl [CBK262585] | 94.9% |
| COc1ccc(C)cc1S(=O)(=O)n1ccc2c(CNC3CCN(C(C)C)CC3)cccc21 [CBK113310T] | 117% |
| COc1ccc(C2=NN(C(=O)CCC(=O)O)C(c3cccs3)C2)cc1OC (stereo not drawn) [CBK266656] | 118% |
| CCC1CCCCN1C(=O)c1cccc(C)c1C (stereo not drawn) [CBK081501] | 96.5% |
| Cc1csc(NC(=O)c2cc(S(=O)(=O)N3CCCC3)cn2C)n1 [CBK295617] | 87.8% |
| COc1ccnc(N2C[C@@H]3OCC(=O)N(Cc4ccccc4)[C@@H]3C2)n1 [CBK289666] | 91% |
| COCc1nnc(NS(=O)(=O)c2ccc(C)cc2)s1 [CBK045523] | 86.7% |
| CS(=O)(=O)c1ccccc1S(=O)(=O)N1CCN(c2nc3ccccc3s2)CC1 [CBK269468] | 97.7% |
| CC(Sc1ncc(-c2ccc(F)cc2)n1Cc1ccccc1)C(=O)NC1CC1 (stereo not drawn) [CBK297105] | 108% |
| COc1ccc([C@@]23CC[C@@H](NC(=O)c4ccc(C(F)(F)F)c(F)c4)C[C@@H]2CN(C)C3)cc1OC [CBK082742C] | 107% |
| Cc1[nH]c(=O)[nH]c(=S)c1C(=O)Nc1ccc2[nH]c(C(F)(F)F)nc2c1 [CBK115494] | 95.2% |
| CC1CCCCN1Cc1ccc(-c2nnn(CC(=O)NCc3ccco3)n2)cc1 (stereo not drawn) [CBK122002] | 96% |
| O=C1CC2(CCN(C(=O)C3CCCC3)CC2)Oc2ccc(F)cc21 [CBK283686] | 80.2% |

| SMILES | viability at 28.5 h, 10 µM |
| --- | --- |
| O=C1Nc2ccc(/C=C/c3ccccc3)cc2C(=O)N2CC[C@H](NC(=O)N3CCOCC3)[C@@H]12 [CBK289344] | 98.1% |
| NC(=O)C(=O)c1c(-c2ccccc2)cc2ccccn12 [CBK288466] | 100% |
| CC(C(=O)N1C2CCC1CC(O)(c1ccco1)C2)c1ccccc1 (stereo not drawn) [CBK284112] | 97.8% |
| CCC(c1nc2ccccc2c(=O)n1CCCn1ccnc1)N1C(=O)c2ccccc2C1=O (stereo not drawn) [CBK268560] | 107% |
| Nc1ccc(CCNC(=O)c2cnc(-c3cccc(C(F)(F)F)c3)c(-c3ccncc3)c2)cc1 [CBK037580] | 90.8% |
| CN1CCC(=NNC(=O)CN(c2cccc(Cl)c2)S(=O)(=O)c2ccccc2)CC1 [CBK262489] | 98% |
| Cc1cccc(C(C)(C)C)c1OCCNCCN [CBK265058G] | 118% |
| CCOc1ccc(-c2nc(N)ncc2Oc2ccc(OC)cc2)c(O)c1 [CBK288105] | 101% |
| CC(C)NC(=O)N1CC[C@H](c2nc3ncccc3[nH]2)C1 [CBK289369] | 101% |
| Cc1nn(C)c2ncc(S(=O)(=O)NCC(N)c3ccc(F)cc3F)cc12 (stereo not drawn) [CBK304303C] | 99.1% |
| Cc1nc(NS(=O)(=O)Cc2ccccc2[N+](=O)[O-])sc1C(=O)O [CBK045564] | 89.5% |
| O=C(Nc1cccc(-c2ccc3nncn3n2)c1)c1ccc(F)cc1 [CBK287682] | 87.1% |
| Cc1ccc(SCC(=O)Nc2cc(C)on2)cc1 [CBK057070] | 115% |
| CC1CCc2nc3ncn(CC(=O)NC4CC4)c(=O)c3cc2C1 (stereo not drawn) [CBK294401] | 88.3% |
| O=c1[nH]c2ncc(-c3ccncc3)nc2n1CC1CC1 [CBK064539] | 90% |
| c1cc(-c2nnc3n2CCCCS3)ccn1 [CBK288543] | 99.3% |
| COc1ccccc1C(=O)CN1CCC2(CC1)OCCc1c2[nH]c2ccc(F)cc12 [CBK040238] | 97.6% |
| CS(=O)(=O)N1CC2(CCN(CCCC#N)CC2)c2ccccc21 [CBK084014] | 97.9% |
| Cc1nc(O)cc(CCn2cc(-c3cncnc3)nn2)n1 [CBK306712] | 96.2% |
| CN1CCN(C(=O)CNS(=O)(=O)c2ccc(Br)cc2)CC1 [CBK034478] | 101% |
| COCC1CCN(c2c(F)cc(C#N)cc2F)CC1 [CBK306244] | 104% |
